Series [1] is described as follows: Compatibility of dexibuprofen with glycerin plasticizer. The following applies: in some instances. The class given is physicochemical. The text has this: In general, gelatin capsule formulations for soft gelatin capsules comprise raw gelatin and one or more plasticizers added to adjust the hardness of the capsule. Typical plasticizers include glycerin, sorbitol and Anidrisorb 85/70. A preferred plasticizer is Anidrisorb 85/70, an aqueous solution of D-sorbitol and sorbitans. […] One preferred gelatin formulation for the soft gelatin capsules used in accordance with preferred embodiments includes gelatin in the range of about 40% to 48% and a plasticizer ranging in amount from about 20% to 35%. Another preferred plasticizer is sorbitol BP, a non-crystallizing sorbitol solution. When either a 70%, non-crystallizing sorbitol solution or Anidrisorb 85/70 are used alone, the amount of plasticizer used preferaby ranges from about 25% to 35%. Capsule formulations can also include other suitable additives, for example coloring agents, which impart specific characteristics such as the look and feel of the capsule. FD&C dyes and D & C dyes are examples of pharmaceutically acceptable coloring agents that may be used in preferred embodiments.

For series [2] the following is noted: cited from earlier work.

As for `CC(C)Cc1ccc([C@H](C)C(=O)O)cc1` [Dexibuprofen, (S)-(+)-2-(4-isobutylphenyl)propionic acid], the “Reaction with glycerin (plasticizer of the capsule shell)” value in series [1] is “forming unwanted glycerol esters of dexibuprofen”. The Solubility in acetone result in series [2] (acetone) is “freely soluble”. Besides, the “Solubility in aqueous solutions of alkali hydroxides and carbonates” value in series [2] (aqueous solutions of alkali hydroxides and carbonates) is “soluble”. For the same compound, in series [2] (methanol), the Solubility in methanol entry is on record as “freely soluble”. In addition, in series [2] (methylene chloride), the “Solubility in methylene chloride” value was “freely soluble”. The “Solubility in most organic solvents” value in series [2] (most organic solvents) is recorded as “readily soluble”. Besides, the Solubility in water result in series [2] (water) is recorded as “practically insoluble”.

The values above are taken from patent publication US6551615B1, “Dexibuprofen-containing soft gelatin capsules and process for preparing the same” (M/s. Strides Arcolab Limited, priority 2001, dated 2003).
